Test results taken from patent US20160158200A1, “Combinations of Hepatitis C Virus Inhibitors” (priority 2013, published 2016).

What follows are compounds tested on HCV genotype-1a variant with glutamine 30 changed to glutamate in the NS5A protein. Conditions: test compound titrated with BMS-790052 fixed at 200 nM; genotype 1a Q30E replicon.
Format: cell-based
In short: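 Synergy was assessed by combining several fixed amounts of an NS5A-targeting compound with a titration of the second compound of interest.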

Compound	Fold-Synergistic 1a (Q30E) [fold]
CC(C)[C@H](NC(=O)c1ccccc1C#N)c1ncc(-c2ccc(-c3ccc(-c4cnc([C@@H](NC(=O)c5ccccc5C#N)C(C)C)[nH]4)cc3)cc2)[nH]1 [Compound S-94]	>100
COc1cccc(C(=O)N[C@H](c2ncc(-c3ccc(-c4ccc(-c5cnc([C@@H](NC(=O)c6cccc(OC)c6)C(C)C)[nH]5)cc4)cc3)[nH]2)C(C)C)c1 [Compound S-77]	>100
CC(=O)N1C[C@H](F)C[C@H]1C(=O)N[C@H](c1nc(-c2ccc(-c3ccc(-c4c[nH]c([C@@H](NC(=O)[C@@H]5C[C@@H](F)CN5C(C)=O)C(C)(C)C)n4)cc3)cc2)c[nH]1)C(C)(C)C [Compound W-102]	>10
CN(C)S(=O)(=O)N[C@H](c1nc(-c2ccc(-c3ccc(-c4c[nH]c([C@@H](NS(=O)(=O)N(C)C)C(C)(C)C)n4)cc3)cc2)c[nH]1)C(C)(C)C [Compound L-116]	>100
CC(C)[C@H](NC(=O)C1CCC(F)(F)CC1)c1nc2ccc(C#CC#Cc3ccc4nc([C@@H](NC(=O)C5CCC(F)(F)CC5)C(C)C)[nH]c4c3)cc2[nH]1 [Compound B52]	>100
CC(C)(C)OC(=O)N1CC(F)(F)CC1(C)C(=O)N[C@H](c1nc(-c2ccc(-c3ccc(-c4c[nH]c([C@@H](NC(=O)C5(C)CC(F)(F)CN5C(=O)OC(C)(C)C)C(C)(C)C)n4)cc3)cc2)c[nH]1)C(C)(C)C (single isomer, unassigned) [Compound W-76]	>100
CC(C)(C)OC(=O)NC(C)(C)C(=O)N[C@H](c1nc(-c2ccc(-c3ccc(-c4c[nH]c([C@@H](NC(=O)C(C)(C)NC(=O)OC(C)(C)C)C(C)(C)C)n4)cc3)cc2)c[nH]1)C(C)(C)C [Compound L-3]	>100
O=C(C1Cc2ccccc2O1)N1CCC[C@H]1c1ncc(-c2ccc(-c3ccc(-c4cnc([C@@H]5CCCN5C(=O)C5Cc6ccccc6O5)[nH]4)cc3)cc2)[nH]1 (stereo partly shown) [Compound S-157]	>10
Cc1cc(-c2ccc(-c3c[nH]c([C@@H](NC(=O)C(C)(C)C)C(C)(C)C)n3)cc2)ccc1-c1c[nH]c([C@@H](NC(=O)C(C)(C)C)C(C)(C)C)n1.O=C(O)C(F)(F)F [Compound N-86]	>100
CC(C)(C(=O)N[C@H](c1nc(-c2ccc(-c3ccc(-c4c[nH]c([C@@H](NC(=O)C(C)(C)C(O)C5CC(F)(F)C5)C(C)(C)C)n4)cc3)cc2)c[nH]1)C(C)(C)C)C(O)C1CC(F)(F)C1 (single isomer, unassigned) [Compound N-144C]	>100
COc1ccccc1C(O)C(C)(C)C(=O)N[C@H](c1nc(-c2ccc(-c3ccc(-c4c[nH]c([C@@H](NC(=O)C(C)(C)C(O)c5ccccc5OC)C(C)(C)C)n4)cc3)cc2)c[nH]1)C(C)(C)C (single isomer, unassigned) [Compound N-125C]	>100
CC(C)(C)[C@H](NC(=O)C1CCC(F)(F)CC1)c1nc2c([nH]1)-c1ccc(-c3ccc4c(c3)CCc3nc([C@@H](NC(=O)C5CCC(F)(F)CC5)C(C)(C)C)[nH]c3-4)cc1CC2 [Compound B23]	>100
COC(=O)NC(C(=O)NC(c1nc(-c2ccc(-c3ccc(-c4cn(C)c(C(NC(=O)C(NC(=O)OC)C(C)C)C(C)C)n4)cc3)cc2)cn1C)C(C)C)C(C)C.O=C(O)C(F)(F)F.O=C(O)C(F)(F)F (stereo not shown) [Compound Y-17]	>10
CC(C)(C)OC(=O)CC(C(=O)NC(c1nc(-c2ccc(-c3ccc(-c4c[nH]c(C(NC(=O)C(CC(=O)OC(C)(C)C)C5CCCC5)C(C)(C)C)n4)cc3)cc2)c[nH]1)C(C)(C)C)C1CCCC1 (stereo not shown) [Compound S-272]	>100
CC(C)(C)[C@H](NC(=O)C1(NCC(F)(F)F)CC1)c1nc(-c2ccc(-c3ccc(-c4c[nH]c([C@@H](NC(=O)C5(NCC(F)(F)F)CC5)C(C)(C)C)n4)cc3)cc2)c[nH]1 [Compound L-96]	>100
Cc1ccccc1C(=O)N[C@H](c1ncc(-c2ccc(-c3ccc(-c4cnc([C@@H](NC(=O)c5ccccc5C)C(C)C)[nH]4)cc3)cc2)[nH]1)C(C)C [Compound S-70]	>100
CC(C)(C)[C@H](NC(=O)C(=O)N1CCCC(F)(F)C1)c1nc(-c2ccc(-c3ccc(-c4c[nH]c([C@@H](NC(=O)C(=O)N5CCCC(F)(F)C5)C(C)(C)C)n4)cc3)cc2)c[nH]1 [Compound W-46A]	>100
CC(=O)N(C)C1(C(=O)N[C@H](c2nc(-c3ccc(-c4ccc(-c5c[nH]c([C@@H](NC(=O)C6(N(C)C(C)=O)CCC6)C(C)(C)C)n5)cc4)cc3)c[nH]2)C(C)(C)C)CCC1.O=C(O)C(F)(F)F.O=C(O)C(F)(F)F [Compound L-12]	>100
CC(C)(C)[C@H](NC(=O)C1CCC(F)(F)CC1)c1nc(-c2ccc(-c3ccc(-c4c[nH]c([C@@H](NC(=O)C5CCC(F)(F)CC5)C(C)(C)C)n4)cc3)cc2)c[nH]1 [Compound N-47]	>100
Cc1onc(-c2ccccc2)c1C(=O)N1CCC[C@H]1c1ncc(-c2ccc(-c3ccc(-c4cnc([C@@H]5CCCN5C(=O)c5c(-c6ccccc6)noc5C)[nH]4)cc3)cc2)[nH]1 [Compound S-118]	<10

Compound	Fold-Synergistic 1a (Q30E) [fold]
CC(C)(C)C(=O)N[C@H](c1nc2ccc(C#Cc3ccc4nc([C@@H](NC(=O)C(C)(C)C)C(C)(C)C)[nH]c4c3)cc2[nH]1)C(C)(C)C.O=C(O)C(F)(F)F [Compound B39]	>100
CC1(C(=O)N[C@H](c2nc(-c3ccc(-c4ccc(-c5c[nH]c([C@@H](NC(=O)C6(C)CCCCC6O)C(C)(C)C)n5)cc4)cc3)c[nH]2)C(C)(C)C)CCCCC1O (single isomer, unassigned) [Compound Y-106]	>100
CC1(C)C2CCC(C(=O)N[C@H](c3nc(-c4ccc(-c5ccc(-c6c[nH]c([C@@H](NC(=O)C78CCC(C7)C(C)(C)C8O)C(C)(C)C)n6)cc5)cc4)c[nH]3)C(C)(C)C)(C2)C1O (single isomer, unassigned) [Compound Y-107]	>100
CC1(C(NC(=O)C(C)(C)C(O)C2CC(F)(F)C2)c2nc(-c3ccc(-c4ccc(-c5c[nH]c(C(NC(=O)C(C)(C)C(O)C6CC(F)(F)C6)C6(C)CC6)n5)cc4)cc3)c[nH]2)CC1 (mixture of isomers) [Compound N-157]	>100
CC(C)[C@H](NC(=O)C(C)(C)OCC(F)F)c1nc(-c2ccc(-c3ccc(-c4c[nH]c([C@@H](NC(=O)C(C)(C)OCC(F)F)C(C)C)n4)cc3F)cc2)c[nH]1.O=C(O)C(F)(F)F [Compound N-98]	>100
CC(C)(C)CN[C@H](c1nc(-c2ccc(-c3ccc(-c4c[nH]c([C@@H](NCC(C)(C)C)C(C)(C)C)n4)cc3)cc2)c[nH]1)C(C)(C)C [Compound L-1]	>100
COCC(NC(=O)C(C)(C)C)c1nc(-c2ccc(-c3ccc(-c4c[nH]c(C(COC)NC(=O)C(C)(C)C)n4)cc3)cc2)c[nH]1 [Compound L-105]	>100
CC(C)(C)[C@H](NC(=O)C1(F)CCC(F)(F)CC1)c1nc(-c2ccc(-c3ccc(-c4c[nH]c([C@@H](NC(=O)C5(F)CCC(F)(F)CC5)C(C)(C)C)n4)cc3)cc2)c[nH]1 [Compound P-39]	>100
CC(C)(NCC(F)(F)F)C(=O)NC(c1nc(-c2ccc(-c3ccc(-c4c[nH]c(C(NC(=O)C(C)(C)NCC(F)(F)F)C(C)(C)C)n4)cc3)cc2)c[nH]1)C(C)(C)C [Compound L-50]	>100
CC(C)(C)[C@H](NC(=O)C1CC12CCC2)c1nc(-c2ccc(-c3ccc(-c4cnc([C@@H](NC(=O)C5CC56CCC6)C(C)(C)C)[nH]4)cc3)cc2)c[nH]1 (stereo partly shown) [Compound B-183]	>100
CC(C)[C@H](NC(=O)n1c2ccccc2c2ccccc21)c1ncc(-c2ccc(-c3ccc(-c4cnc([C@@H](NC(=O)n5c6ccccc6c6ccccc65)C(C)C)[nH]4)cc3)cc2)[nH]1 [Compound S-233]	>100
COC(C)(CO)C(=O)N[C@H](c1nc(-c2ccc(-c3ccc(-c4c[nH]c([C@@H](NC(=O)C(C)(CO)OC)C(C)(C)C)n4)cc3)cc2)c[nH]1)C(C)(C)C (single isomer, unassigned) [Compound W-237]	>100
Cc1cccc(CC(=O)N[C@H](c2ncc(-c3ccc(-c4ccc(-c5cnc([C@@H](NC(=O)Cc6cccc(C)c6)C(C)C)[nH]5)cc4)cc3)[nH]2)C(C)C)c1 [Compound S-41]	>10
CC(C)(C)[C@H](NC(=O)C1CCC(F)(F)CC1)c1nc2ccc(C#CC#Cc3ccc4nc([C@@H](NC(=O)C5CCC(F)(F)CC5)C(C)(C)C)[nH]c4c3)cc2[nH]1 [Compound B46]	>100
COC(=O)N[C@H](C(=O)NC1(c2nc(-c3ccc(-c4ccc(-c5c[nH]c(C6(NC(=O)[C@@H](NC(=O)OC)C(C)C)CCC6)n5)cc4)cc3)c[nH]2)CCC1)C(C)C [Compound N-10]	<10
CC(C)[C@H](NC(=O)C(C)(C)OCC(F)(F)F)c1ncc(-c2ccc(-c3ccc(-c4cnc([C@@H](NC(=O)C(C)(C)OCC(F)(F)F)C(C)C)[nH]4)cc3)cc2)[nH]1 [Compound Y-31]	>100
Cc1cc(C(=O)N[C@H](c2ncc(-c3ccc(-c4ccc(-c5cnc([C@@H](NC(=O)c6cc(C)on6)C(C)C)[nH]5)cc4)cc3)[nH]2)C(C)C)no1 [Compound S-18]	>100
COC(=O)N[C@H](C(=O)N1CCC[C@H]1c1nc(-c2ccc(-c3ccc(-c4c[nH]c([C@@H](NC(=O)C5CCC(F)(F)CC5)C(C)C)n4)cc3)cc2)c[nH]1)C(C)C [Compound Y-49]	>100
COCC(NC(=O)C(=O)N1CCC(F)(F)CC1)c1nc(-c2ccc(-c3ccc(-c4c[nH]c(C(COC)NC(=O)C(=O)N5CCC(F)(F)CC5)n4)cc3)cc2)c[nH]1 [Compound L-103]	>10
CC1([C@H](NC(=O)C(=O)N2CCC(F)(F)CC2)c2nc(-c3ccc(-c4ccc(-c5c[nH]c([C@@H](NC(=O)C(=O)N6CCC(F)(F)CC6)C6(C)CC6)n5)cc4)cc3)c[nH]2)CC1.O=C(O)C(F)(F)F [Compound W-39]	>100
